Like-named read-outs stand apart in the source and are kept apart here.
Experiments:
[1] = type: physicochemical; settings: for Concentration measured by HPLC after treatment: pH 7 buffer, 20° C.
Procedure: A stock pH 7 buffer solution was prepared by adding aqueous sodium hydroxide solution (0.1 M, 145 mL) to aqueous potassium dihydrogen phosphate solution (0.1 M, 250 mL), and then adding sufficient distilled water to adjust the final volume to 500 mL. At least 1 time and up to about 5 times the amount of diclosulam needed for saturation was added to a mixing vessel containing stock buffer solution at the test temperature (e.g., 20° C.). The mixture was magnetically stirred in the dark while being maintained at the test temperature and the samples were intermittently and periodically removed for analysis. The samples were centrifuged using a high speed, temperature-controlled centrifuge at the test temperature for about 20 minutes at ≧12000 G to remove suspended particles. An aliquot of each supernatant was taken for analysis. The concentration of diclosulam in the supernatant was determined by a high pressure liquid chromatography (HPLC) with a reversed phase chromatography column and UV detection. The method should include development of best-fit calibration curves based on at least three standards using linear regression analysis Samples were successively withdrawn from the mixing vessel and analyzed until three successive samples show little or no variation in concentration. The test is preferably replicated to ensure accuracy.

[2] = Viscosity (stated in words, no method given); type: physicochemical
[3] = OD formulation, original concentration 40%
[4] = SG formulation, original concentration 25%
[5] = WG formulation, original concentration 25%

| SMILES | Concentration measured by HPLC after treatment [1, 3] [%] | Concentration measured by HPLC after treatment [1, 4] [%] | Concentration measured by HPLC after treatment [1, 5] [%] | Viscosity (in words) ([2]; listed as diclosulam in amorphous state) | Solubility (in words) [1] | Viscosity (in words) ([2]; listed as crystalline modification I of diclosulam) |
| --- | --- | --- | --- | --- | --- | --- |
| CCOc1nc(F)cc2nc(S(=O)(=O)Nc3c(Cl)cccc3Cl)nn12 [Amorphous diclosulam, 2′,6′-dichloro-5-ethoxy-7-fluoro[1,2,4]triazolo[1,5-c]pyrimidine-2-sulfonanilide, reference compound] | 14 | 15 | 12 | highly viscous | – | – |
| CCOc1nc(F)cc2nc(S(=O)(=O)Nc3c(Cl)cccc3Cl)nn12 [Diclosulam, crystalline modification I, 2′,6′-dichloro-5-ethoxy-7-fluoro[1,2,4]triazolo[1,5-c]pyrimidine-2-sulfonanilide] | 35 | 24.9 | 23 | – | significant increase | significant decrease |
